Source: patent publication US20100111838A1, “BRAIN-LOCALIZING POLYPEPTIDES COMPRISING A MULTIVALENT BINDING MOIETY AND IMPROVED METABOLIC STABILITY” (Proteus Sciences Co., Ltd, priority 2007, published 2010)
Where a SMILES comes first, the peptide text is derived from it. The star is where a group is joined. 5FAM = O=C1OC2(c3ccc(O)cc3Oc3cc(O)ccc32)c2ccc(C(=O)*)cc21

Assay: In vitro metabolism test of fluorescein-labeled peptides in liver extract solution (HPLC)
Type: in vitro ADME
Conditions: mouse liver extract solution, 37° C.
Description: To compare the degree of improved stability observed in [C]K004K, an experiment system that uses a fluorescent pigment as a tracer instead of an isotope labeling for in vitro evaluation using a mouse liver homogenate was produced.
Add two parts of Hanks' solution to one part of mouse liver, and homogenize ↓ Centrifuge and collect supernatant ↓ Add five parts of Hanks' solution (liver extract solution) ↓ Add 5 μL of peptide to 245 μL of liver extract solution ↓
↓ Take 50 μL of sample 0, 5, 30, 60, and 120 minutes after incubation ↓ Add 200 μL, of 70% ethanol (pre-cooled at −30° C.) and then vortex ↓ Add 500 μL of chloroform (pre-cooled at −30° C.) and then vigorously vortex ↓ Centrifuge and collect supernatant ↓ Add an equivalent amount of DMF and then vortex ↓ Centrifuge and collect supernatant ↓ HPLC analysis using Co-sense
[C](Flu)-C004C: A peptide cyclized by adding C to both ends of the 004 sequence and forming a disulfide bond between them was labeled with fluorescein at its N-terminus. [C](Flu)-K004C: A peptide cyclized by adding K to the N terminus and C to the C terminus of the 004 sequence and forming a peptide bond between the N- and C-termini was labeled with fluorescein at its N terminus. [C](Flu)-K004K: A peptide cyclized by adding K to both ends of the 004 sequence and forming a peptide bond between the N- and C-termini was labeled with fluorescein at its N terminus. […]

CC(C)C[C@@H]1NC(=O)[C@H](Cc2c[nH]cn2)NC(=O)[C@H](CCCNC(=N)N)NC(=O)[C@H](C(C)C)NC(=O)[C@H](C(C)C)NC(=O)[C@H](CCCCNC(=O)c2ccc3c(c2)C(=O)OC32c3ccc(O)cc3Oc3cc(O)ccc32)NC(=O)[C@H](CCCCN)NC(=O)[C@H](CCC(N)=O)NC(=O)[C@H](CCC(N)=O)NC1=O [[C](Flu)-K004K] (cyclo(K(5FAM)VVRHLQQK))
resistance to degradation in liver extract solution (comparison): strongest resistance to degradation
